In publication PMC7006939 (ACS pharmacology & translational science, 2019):
Where two headings read alike, the source gives them in different places.

Columns and labels:
pirin [1] = target: T1, pirin (Homo sapiens, UniProt O00625); assay: ITC; format: binding
T1 sequence (O00625 1-290): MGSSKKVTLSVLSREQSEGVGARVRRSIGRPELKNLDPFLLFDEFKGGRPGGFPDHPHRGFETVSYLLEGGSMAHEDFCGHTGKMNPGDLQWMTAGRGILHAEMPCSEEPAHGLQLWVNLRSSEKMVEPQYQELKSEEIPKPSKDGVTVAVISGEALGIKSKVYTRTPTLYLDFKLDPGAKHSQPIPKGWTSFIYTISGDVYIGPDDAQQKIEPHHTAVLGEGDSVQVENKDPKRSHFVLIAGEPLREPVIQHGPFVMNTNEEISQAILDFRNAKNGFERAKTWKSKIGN

pirin [2] = target: T1, pirin; assay: ITC; format: binding; remark: listed apart in the source

Row | Kd (pirin [1]) [µM] | Kd (pirin [2]) [µM] | SMILES
1 | 8.5 | – | O=C(Nc1ccc(Cl)cc1)C1CN(C(=O)c2cc(F)cc(-c3ccncc3)c2)CC(F)(F)C1 (centres unmarked) [CCG-257081]
2 | – | 4.3 | O=C(Nc1ccc(Cl)cc1)C1CN(C(=O)c2cccc(-c3ccco3)c2)CC(F)(F)C1 (racemic) [CCG-222740]
